Measurements reported in US12655174B2, “Adenosine A3 receptor agonists, preparation methods and uses thereof” (ZHEJIANG VIMGREEN PHARMACEUTICALS, LTD., priority 2020, dated 2026).

What was measured:
[1] = biological target: T1, ADORA3 receptor (CHO cells stably expressing ADORA3 receptor) (Homo sapiens, UniProt P0DMS8); test: Effect of compound on intracellular cAMP level by adenosine A3 receptor agonism; assay type: cell-based; details: forskolin-stimulated
T1 construct: expressed in transfected cells
T1 sequence (P0DMS8 1-318): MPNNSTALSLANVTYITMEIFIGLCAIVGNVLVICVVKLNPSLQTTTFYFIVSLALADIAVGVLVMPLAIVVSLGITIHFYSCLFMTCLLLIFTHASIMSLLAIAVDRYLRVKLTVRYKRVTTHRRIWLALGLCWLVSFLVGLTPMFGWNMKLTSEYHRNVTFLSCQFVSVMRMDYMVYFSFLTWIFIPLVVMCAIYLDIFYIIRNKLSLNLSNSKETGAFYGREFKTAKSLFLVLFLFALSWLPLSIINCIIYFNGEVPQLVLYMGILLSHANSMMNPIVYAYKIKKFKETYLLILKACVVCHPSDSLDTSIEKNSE
Protocol: Example 26: Test the Effect of Compound on Intracellular cAMP Level by Adenosine A3 Receptor Agonism
• 1) 1×HBSS with Ca2+ and Mg2+ (14 mL), 1 M HEPES (75 μL), a 7.5% (w/v) BSA stabilizer (pH 7.4, 200 μL), and 20 mM rolipram (7.5 μL) were respectively prepared as cAMP assay buffer. • 2) Preparation of compound source plate • a. […] A 10 mM stock solution was subjected to a 3-fold serial dilution by 100% (v/v) DMSO to prepare 10 doses of the test substance. • c. 1 mM of Forskolin was prepared by 100% (v/v) DMSO. • 3) Preparation of test plate • a. Prior to the assay, CHO cells stably expressing ADORA3 receptor were harvested and the cells were counted by using a Countess cell counter. […] The cells were seeded at a density of 2,000 cells/well in a 384-well plate. • 4) 10 nL/well of the serially diluted compound and 10 nL/well of 1 mM of forskolin were transferred to each well with ADORA3 receptor expressing cells by using Echo550. • 5) A cell plate was centrifuged at 1,000 rpm for 1 minute and then stirred at 600 rpm for 2 minutes. The plate was incubated at 37° C. • 6) An Eu-cAMP tracer working solution and an Ulight-anti-cAMP working solution were prepared according to the following table.
• 7) 5 μl/well of the Eu-cAMP tracer working solution and 5 μl/well of the Ulight-anti-cAMP working solution were added to each well of the plate. […] 2. Data Analysis • 1) An activation percentage was calculated by using the following formula:
[formula] • % Activation: activation percentage • Ratiocpd: ratio of emissivity of test compound • RatioLow control: ratio of low emissivity • RatioHigh control: ratio of high emissivity • 2) EC50 was calculated by an XLfit using the Hill equation to fit the activity percentage and a log of a compound concentration. 3. Test Result

[2] = Pharmacokinetic test of compound in SD rat; assay type: in vivo; details: SD rats, intragastric administration (IG), cassette dosing
Protocol: Example 28: Pharmacokinetic Test of Compound in SD Rat
The animal species used in this experiment were SD rats. There were 3 animals per group. The rats were dosed in cassette format, i.e., multiple (1-6) different compounds were dosed simultaneously to the same group of the SD rats. The vehicle used for the drug was 5% DMSO+5% Solutl+90% ([…] methylcellulose M450), and the administration route was intragastric administration (IG).

| EC50 [1] [nM] | AUC_D [2] [kg·ng·h/mL/mg] | Structure (SMILES) |
| --- | --- | --- |
| 9.44 | 273.37 | CNC(=O)[C@H]1O[C@@H](n2cnc3c(NCc4cccc(C(F)(F)F)c4)nc(-c4cncc(Cl)c4)nc32)[C@H](O)[C@@H]1O [compound 179, (2S,3S,4R,5R)-5-(6-(3-(trifluoromethyl)benzylamino)-2-(5-chloropyridin-3-yl)-9H-purin-9-yl)-3,4-dihydroxyl-N-methyl-tetrahydrofuran-2-formamide] |
| < 0.51 | 235.62 | CNC(=O)[C@H]1O[C@@H](n2cnc3c(NCc4cc(Cl)ccn4)nc(-c4cccnc4)nc32)[C@H](O)[C@@H]1O [compound 182, (2S,3S,4R,5R)-5-(6-((4-chloropyridin-2-yl)methylamino)-2-(pyridin-3-yl)-9H-purin-9-yl)-3,4-dihydroxyl-N-methyl-tetrahydrofuran-2-formamide] |
| < 0.51 | 589.63 | CNC(=O)[C@H]1O[C@@H](n2cnc3c(NCc4cc(Cl)ccn4)nc(-c4cncc(OC)c4)nc32)[C@H](O)[C@@H]1O [compound 185, (2S,3S,4R,5R)-5-(6-((4-chloropyridin-2-yl)methylamino)-2-(5-methoxypyridin-3-yl)-9H-purin-9-yl)-3,4-dihydroxyl-N-methyl-tetrahydrofuran-2-formamide] |
| 14.5 | 1269.78 | CNC(=O)[C@H]1O[C@@H](n2cnc3c(NCc4ccccc4)nc(-c4cncc(OC)c4)nc32)[C@H](O)[C@@H]1O [compound 187, (2S,3S,4R,5R)-5-(6-(benzylamino)-2-(5-methoxypyridin-3-yl)-9H-purin-9-yl)-3,4-dihydroxyl-N-methyl-tetrahydrofuran-2-formamide] |
| 8.68 | 212.91 | CNC(=O)[C@H]1O[C@@H](n2cnc3c(NCc4cccc(Cl)n4)nc(-c4cncc(OC)c4)nc32)[C@H](O)[C@@H]1O [compound 230, (2S,3S,4R,5R)-5-(6-(((6-chloropyridin-2-yl)methyl)amino)-2-(5-methoxypyridin-3-ly)-9H-purin-9-yl)-3,4-dihydroxyl-N-methyltetrahydrofuran-2-carboxamide] |
| 0.28 | 1182.41 | [2H]C([2H])([2H])NC(=O)[C@H]1O[C@@H](n2cnc3c(NCc4cc(Cl)ccc4F)nc(-c4cncc(Cl)c4)nc32)[C@H](O)[C@@H]1O [compound 245, (2S,3S,4R,5R)-5-(6-(5-chloro-2-fluorobenzylamino)-2-(5-chloropyridin-3-yl)-9H-purin-9-yl)-3,4-dihydroxyl-N-((methyl-d3))-tetrahydrofuran-2-carboxamide] |
| 9.51 | 703.00 | [2H]C([2H])([2H])NC(=O)[C@H]1O[C@@H](n2cnc3c(NCc4cccs4)nc(-c4cncc(Cl)c4)nc32)[C@H](O)[C@@H]1O [compound 254, (2S,3S,4R,5R)-5-(2-(5-chloropyridin-3-yl)-6-((thiophen-2-ylmethyl)amino)-9H-purin-9-yl)-3,4-dihydroxyl-N-(methyl-d3)tetrahydrofuran-2-carboxamide] |
| 8.58 | 406.00 | [2H]C([2H])([2H])NC(=O)[C@H]1O[C@@H](n2cnc3c(NCc4ccsc4)nc(-c4cncc(Cl)c4)nc32)[C@H](O)[C@@H]1O [compound 255, (2S,3S,4R,5R)-5-(2-(5-chloropyridin-3-yl)-6-((thiophen-3-ylmethyl)amino)-9H-purin-9-yl)-3,4-dihydroxyl-N-(methyl-d3)tetrahydrofuran-2-carboxamide] |
| 2.85 | 8902.66 | CNC(=O)[C@H]1O[C@@H](n2cnc3c(NCc4cccc(C)c4)nc(-c4cncc(C)c4)nc32)[C@H](O)[C@@H]1O [compound 284, (2S,3S,4R,5R)-5-(6-(3-methylbenzylamino)-2-(5-methylpyridin-3-yl)-9H-purin-9-yl)-3,4-dihydroxyl-N-methyl-tetrahydrofuran-2-formamide] |
| 6.81 | 106.30 | CNC(=O)[C@H]1O[C@@H](n2cnc3c(NCc4cccc(C(F)(F)F)n4)nc(-c4cncc(F)c4)nc32)[C@H](O)[C@@H]1O [compound 289, (2S,3S,4R,5R)-5-(2-(5-fluoropyridin-3-yl)-6-(((6-(trifluoromethyl)pyridin-2-yl)methyl)amino)-9H-purin-9-yl)-3,4-dihydroxyl-N-methyltetrahydrofuran-2-carboxamide] |
| 12.4 | 216.77 | CNC(=O)[C@H]1O[C@@H](n2cnc3c(NCc4cccc(C(F)(F)F)n4)nc(-c4cncc(Cl)c4)nc32)[C@H](O)[C@@H]1O [compound 290, (2S,3S,4R,5R)-5-(2-(5-chloropyridin-3-yl)-6-(((6-(trifluoromethyl)pyridin-2-yl)methyl)amino)-9H-purin-9-yl)-3,4-dihydroxyl-N-methyltetrahydrofuran-2-carboxamide] |
| 2.62 | 639.00 | CNC(=O)[C@H]1O[C@@H](n2cnc3c(NCc4cc(C(F)(F)F)ccn4)nc(-c4cncc(Cl)c4)nc32)[C@H](O)[C@@H]1O [compound 294, (2S,3S,4R,5R)-5-(2-(5-chloropyridin-3-yl)-6-(((4-(trifluoromethyl)pyridin-2-yl)methyl)amino)-9H-purin-9-yl)-3,4-dihydroxyl-N-methyltetrahydrofuran-2-carboxamide] |
| 2.13 | 729.20 | CNC(=O)[C@H]1O[C@H](n2cnc3c(NCc4cccc(C)c4)nc(-c4cncc(OC)c4)nc32)[C@H](O)[C@@H]1O [compound 300] |
